# Key:
# Assay type in all cases: in vivo
# [1] = test system: rats in scopolamine induced memory deficit; experiment: Scopolamine induced memory deficit, water labyrinth learning test; settings: scopolamine model, combination 2 × (30 + 10) mg/kg/day p.o.
# normal rats = experiment: Learning process of normal rats in water labyrinth; settings: for Number of errors Mean ± S.E.M. / Swimming time (sec) Mean ± SEM.: p.o., Vit.-C 2 × 10, Lecithin 2 × 30, combination 2 × (30 + 10) mg/kg/day
# From the text: Ascorbic acid and lecithin were ineffective when they were given separately (Table I.).
# normal mice = experiment: Swimming test, physical performance of normal mice; settings: for Swimming time (sec) mean ± S.E.M.: p.o., Vit-C 2 × 10, Lecithin 2 × 30, combination 2 × (30 + 10) mg/kg/day
# From the text: In the study ascorbic acid was ineffective, when it was given in itself (Table III.).
# [2] = versus vehicle (control) and single components
smiles,measurement,setting,value
"CN1[C@@H]2C[C@@H](OC(=O)[C@H](CO)c3ccccc3)C[C@H]1[C@@H]1O[C@@H]12 [Scopolamine, scopolamine]",Number of errors Mean ± S.E.M.,[1]; session 1,16.2 ± 0.83
same,Swimming time (sec) mean ± S.E.M.,[1]; session 1,114.7 ± 9.45 s
same,Number of errors Mean ± S.E.M.,[1]; session 2,11.6 ± 0.52^++
same,Swimming time (sec) mean ± S.E.M.,[1]; session 2,73.7 ± 6.22 s
same,Number of errors Mean ± S.E.M.,[1]; session 3,8.9 ± 0.41^++
same,Number of errors Mean ± S.E.M.,[1]; session 4,6.3 ± 0.26^++
"O=C1O[C@H]([C@@H](O)CO)C(O)=C1O [Vit.-C, ascorbic acid]",Number of errors Mean ± S.E.M.,normal rats; session 1,16.4 ± 0.45
same,Swimming time (sec) Mean ± SEM.,normal rats; session 1,140.3 ± 9.54 s
same,Number of errors Mean ± S.E.M.,normal rats; session 2,11.6 ± 0.40
same,Swimming time (sec) Mean ± SEM.,normal rats; session 2,89.9 ± 6.22 s
same,Number of errors Mean ± S.E.M.,normal rats; session 3,6.2 ± 0.76
same,Swimming time (sec) Mean ± SEM.,normal rats; session 3,64.9 ± 7.29 s
same,Number of errors Mean ± S.E.M.,normal rats; session 4,3.9 ± 0.35
same,Swimming time (sec) Mean ± SEM.,normal rats; session 4,34.8 ± 2.79 s
same,Effect on the learning process of rats in water labyrinth (in words),normal rats; [2],ineffective
same,Swimming time (sec) mean ± S.E.M.,normal mice; 1. day starting values,76.2 ± 3.7 s
same,Swimming time (sec) mean ± S.E.M.,normal mice; 2. day,70.8 ± 3.8 s
same,Swimming time (sec) mean ± S.E.M.,normal mice; 3. day,82.2 ± 3.4 s
same,Swimming time (sec) mean ± S.E.M.,normal mice; 4. day,88.8 ± 6.1 s
same,Swimming time (sec) mean ± S.E.M.,normal mice; 5. day,90.0 ± 6.9 s
same,Effect on the physical performance of mice in swimming test (in words),normal mice; [2],ineffective

# Source: patent US20040006048A1, “Combination of lecithin with ascorbic acid” (priority 2002, published 2004)
